{"source": "patent US9174994B2", "about": "“Enhanced treatment regimens using mTor inhibitors” (INTELLIKINE LLC, priority 2011, dated 2015)", "key": {"[1]": {"experiment": "Phase I clinical trial: plasma pharmacokinetics", "format": "in vivo, human", "protocol": "(§1) Adult patients with histologically confirmed advanced solid tumors were enrolled in a 3+3 dose escalation Phase I study evaluating 3 intermittent schedules of administration for compound A: QW (once weekly), QD×3d QW (3 days on 4 days off), and QD×5d QW (5 days on 2 days off), in comparison with daily dosing (QD). Safety, maximum tolerated dose (MTD), pharmacokinetics (PK) and preliminary antitumor activity were evaluated."}, "[2]": {"tested_on": "TORC1 (p4EBP1 and pS6) and TORC2 (pPRAS40)", "experiment": "Human skin immunohistochemistry assay (skin biopsies, Phase I trial)", "format": "in vivo", "protocol": "Skin tissue was fixed in 10% neutral-buffered formalin solution for 24 hours and then processed and embedded in paraffin block. Sections (4 μm) were cut and mounted onto microscopic slides. Sections were incubated with primary antibodies (p4EBP1, pS6, or pRAS40) overnight and developed using a chromogenic substrate.\nPharmacodynamic (PD) endpoints were evaluated in surrogate (peripheral blood cells [PBCs], skin) and tumor tissues for the phosphorylation of TORC1-dependent markers (4EBP1/S6), and TORC2-dependent markers (AKT/PRAS40). 50 patients were treated in 3 intermittent dosing regimens; 21 in 6 cohorts ranging 7-40 mg QW, 20 in 5 cohorts ranging 6-20 mg QDx3d QW, and 9 in 3 cohorts ranging 7-13 mg QDxSd QW. […] The MTD for intermittent dosing was not reached. All adverse events (AEs) reported were reversible. The most common (≧20%, n=35) AEs considered possibly related to compound A reported in all 3 dosing regimens included nausea (51%), hyperglycemia (37%), mucosal inflammation (29%), rash (23%), asthenia (23%), vomiting (26%), and diarrhea (20%). The majority of AEs considered possibly related to compound A in any regimen were Grade 1 or 2. The only reported Grade ≧3 AE (≧5%) possibly related to compound A in 3 regimens was lymphopenia (6%). Tables 4-9 show summaries of observed adverse events for various treatment regimens of the invention."}, "advanced solid tumors": {"tested_on": "advanced solid tumors", "experiment": "Phase I clinical trial: preliminary antitumor activity", "format": "in vivo, human", "details": "patients with lung and renal cancer", "protocol": "as §1"}}, "data": [{"smiles": "CC(C)n1nc(-c2ccc3oc(N)nc3c2)c2c(N)ncnc21", "note": "[compound A]", "values": [{"measurement": "Time per week (hrs) above 100 nM plasma conc.", "setting": "[1]; 6 mg QD", "value": 20, "unit": "h"}, {"measurement": "Time per week (hrs) above 100 nM plasma conc.", "setting": "[1]; 10 mg Q5D", "value": 25, "unit": "h"}, {"measurement": "Time per week (hrs) above 100 nM plasma conc.", "setting": "[1]; 13 mg Q5D", "value": 30, "unit": "h"}, {"measurement": "Time per week (hrs) above 100 nM plasma conc.", "setting": "[1]; 16 mg Q3D", "value": 30, "unit": "h"}, {"measurement": "Time per week (hrs) above 100 nM plasma conc.", "setting": "[1]; 20 mg Q3D", "value": 35, "unit": "h"}, {"measurement": "Time per week (hrs) above 100 nM plasma conc.", "setting": "[1]; 30 mg QW", "value": 15, "unit": "h"}, {"measurement": "Time per week (hrs) above 100 nM plasma conc.", "setting": "[1]; 40 mg QW", "value": 20, "unit": "h"}, {"measurement": "Plasma exposures (Cmax and AUC0-24): dose dependence", "setting": "[1]; following oral doses", "value": "dose-linear plasma PK"}, {"measurement": "PD (% inhibition, H score) Skin: 4EBP1/PRAS40", "setting": "[2]; 10 mg Q5D", "value": 80, "unit": "%"}, {"measurement": "PD (% inhibition, H score) Skin: 4EBP1/PRAS40", "setting": "[2]; 13 mg Q5D", "value": 80, "unit": "%"}, {"measurement": "PD (% inhibition, H score) Skin: 4EBP1/PRAS40", "setting": "[2]; 16 mg Q3D", "value": 80, "unit": "%"}, {"measurement": "PD (% inhibition, H score) Skin: 4EBP1/PRAS40", "setting": "[2]; 20 mg Q3D", "value": 80, "unit": "%"}, {"measurement": "PD (% inhibition, H score) Skin: 4EBP1/PRAS40", "setting": "[2]; 30 mg QW", "value": 80, "unit": "%"}, {"measurement": "PD (% inhibition, H score) Skin: 4EBP1/PRAS40", "setting": "[2]; 40 mg QW", "value": 80, "unit": "%"}, {"measurement": "pathway inhibition of TORC1 (p4EBP1 and pS6) and TORC2 (pPRAS40)", "setting": "[2]; skin biopsies", "value": "60-100%"}, {"measurement": "Preliminary anti-tumor activity", "setting": "advanced solid tumors", "value": "Preliminary anti-tumor activity was seen"}]}]}
